Numbers after ± are expanded uncertainties.
Experiment: xn = mol fraction of the nth substance listed
Details: Liquid, Vibrating tube method

c1ccsc1 [thiophene] + O=C=O
Details	mass density [kg/m3]
293.15 K, 101 kPa, x2 = 0	1063.59 ± 0.44
303.15 K, 101 kPa, x2 = 0	1051.55 ± 0.44
313.06 K, 7053 kPa, x2 = 0.5661	983.33 ± 0.43
313.06 K, 8092 kPa, x2 = 0.5661	985.63 ± 0.43
313.06 K, 8911 kPa, x2 = 0.5661	987.46 ± 0.43
313.06 K, 10009 kPa, x2 = 0.5661	989.71 ± 0.43
313.06 K, 11009 kPa, x2 = 0.5661	991.78 ± 0.43
313.06 K, 11980 kPa, x2 = 0.5661	993.76 ± 0.43
313.06 K, 13003 kPa, x2 = 0.5661	995.81 ± 0.43
313.06 K, 13999 kPa, x2 = 0.5661	997.77 ± 0.43
313.06 K, 15006 kPa, x2 = 0.5661	999.68 ± 0.43
313.06 K, 15996 kPa, x2 = 0.5661	1001.53 ± 0.43
313.06 K, 17015 kPa, x2 = 0.5661	1003.44 ± 0.43
313.06 K, 17998 kPa, x2 = 0.5661	1005.25 ± 0.43
313.06 K, 19007 kPa, x2 = 0.5661	1007.09 ± 0.43
313.07 K, 4997 kPa, x2 = 0.199	1030.05 ± 0.43
313.07 K, 6011 kPa, x2 = 0.199	1031.17 ± 0.43
313.07 K, 7011 kPa, x2 = 0.199	1032.32 ± 0.43
313.07 K, 8006 kPa, x2 = 0.199	1033.43 ± 0.43
313.07 K, 9032 kPa, x2 = 0.199	1034.56 ± 0.43
313.07 K, 10022 kPa, x2 = 0.199	1035.65 ± 0.43
313.07 K, 11026 kPa, x2 = 0.199	1036.74 ± 0.43
313.07 K, 12001 kPa, x2 = 0.199	1037.83 ± 0.43
313.07 K, 13018 kPa, x2 = 0.199	1038.9 ± 0.43
313.07 K, 13993 kPa, x2 = 0.199	1039.92 ± 0.43
313.07 K, 14989 kPa, x2 = 0.199	1040.95 ± 0.43
313.07 K, 16012 kPa, x2 = 0.199	1042.03 ± 0.43
313.07 K, 17005 kPa, x2 = 0.199	1043.03 ± 0.43
313.07 K, 18003 kPa, x2 = 0.199	1044.05 ± 0.43
313.07 K, 19065 kPa, x2 = 0.199	1045.15 ± 0.43
313.09 K, 1029 kPa, x2 = 0	1040.96 ± 0.44
313.09 K, 1969 kPa, x2 = 0	1041.84 ± 0.44
313.09 K, 2970 kPa, x2 = 0	1042.78 ± 0.44
313.09 K, 3987 kPa, x2 = 0	1043.71 ± 0.44
313.09 K, 5055 kPa, x2 = 0	1044.72 ± 0.44
313.09 K, 5952 kPa, x2 = 0	1045.51 ± 0.44
313.09 K, 6937 kPa, x2 = 0	1046.43 ± 0.44
313.09 K, 8032 kPa, x2 = 0	1047.39 ± 0.44
313.09 K, 9218 kPa, x2 = 0	1048.44 ± 0.44
313.09 K, 10045 kPa, x2 = 0	1049.18 ± 0.44
313.09 K, 11012 kPa, x2 = 0	1050.03 ± 0.44
313.09 K, 12014 kPa, x2 = 0	1050.9 ± 0.44
313.09 K, 12995 kPa, x2 = 0	1051.74 ± 0.44
313.09 K, 13961 kPa, x2 = 0	1052.59 ± 0.44
313.09 K, 14970 kPa, x2 = 0	1053.43 ± 0.44
313.09 K, 15953 kPa, x2 = 0	1054.26 ± 0.44
313.09 K, 17004 kPa, x2 = 0	1055.16 ± 0.44
313.09 K, 18003 kPa, x2 = 0	1055.95 ± 0.44
313.09 K, 18904 kPa, x2 = 0	1056.76 ± 0.44
313.13 K, 9091 kPa, x2 = 0.9217	798.81 ± 0.74
313.13 K, 10071 kPa, x2 = 0.9217	813.05 ± 0.72
313.13 K, 11026 kPa, x2 = 0.9217	824.67 ± 0.67
313.13 K, 12059 kPa, x2 = 0.9217	836.13 ± 0.63
313.13 K, 13037 kPa, x2 = 0.9217	845.52 ± 0.61
313.13 K, 14012 kPa, x2 = 0.9217	854.21 ± 0.59
313.13 K, 15001 kPa, x2 = 0.9217	862.38 ± 0.57
313.13 K, 16014 kPa, x2 = 0.9217	870.06 ± 0.56
313.13 K, 17035 kPa, x2 = 0.9217	877.41 ± 0.55
313.13 K, 18056 kPa, x2 = 0.9217	884.26 ± 0.54
313.13 K, 19024 kPa, x2 = 0.9217	890.25 ± 0.53
313.13 K, 19849 kPa, x2 = 0.9217	895.22 ± 0.52
313.13 K, 20858 kPa, x2 = 0.9217	901.01 ± 0.51
313.13 K, 21968 kPa, x2 = 0.9217	907.04 ± 0.51
313.13 K, 23020 kPa, x2 = 0.9217	912.42 ± 0.5
313.13 K, 24013 kPa, x2 = 0.9217	917.38 ± 0.5
313.13 K, 25004 kPa, x2 = 0.9217	921.98 ± 0.49
313.14 K, 5783 kPa, x2 = 0.3818	1008.02 ± 0.43
313.14 K, 6953 kPa, x2 = 0.3818	1010.44 ± 0.42
313.14 K, 7991 kPa, x2 = 0.6996	974.06 ± 0.43
313.14 K, 8014 kPa, x2 = 0.3818	1012.13 ± 0.42
313.14 K, 9021 kPa, x2 = 0.3818	1013.7 ± 0.42
313.14 K, 9112 kPa, x2 = 0.6996	977.19 ± 0.42
313.14 K, 9872 kPa, x2 = 0.6996	979.01 ± 0.42
313.14 K, 9948 kPa, x2 = 0.3818	1015.07 ± 0.42
313.14 K, 10945 kPa, x2 = 0.3818	1016.6 ± 0.42
313.14 K, 10946 kPa, x2 = 0.6996	981.56 ± 0.42
313.14 K, 11951 kPa, x2 = 0.6996	983.92 ± 0.42
313.14 K, 12015 kPa, x2 = 0.3818	1018.22 ± 0.42
313.14 K, 13025 kPa, x2 = 0.3818	1019.65 ± 0.42
313.14 K, 13033 kPa, x2 = 0.6996	986.45 ± 0.42
313.14 K, 13973 kPa, x2 = 0.3818	1021.04 ± 0.42
313.14 K, 13991 kPa, x2 = 0.6996	988.63 ± 0.42
313.14 K, 14931 kPa, x2 = 0.6996	990.71 ± 0.41
313.14 K, 15006 kPa, x2 = 0.3818	1022.52 ± 0.42
313.14 K, 15988 kPa, x2 = 0.6996	993.02 ± 0.41
313.14 K, 15992 kPa, x2 = 0.3818	1023.89 ± 0.42
313.14 K, 16994 kPa, x2 = 0.6996	995.2 ± 0.41
313.14 K, 17012 kPa, x2 = 0.3818	1025.32 ± 0.42
313.14 K, 18022 kPa, x2 = 0.6996	997.41 ± 0.54
313.14 K, 18039 kPa, x2 = 0.3818	1026.72 ± 0.43
313.14 K, 18908 kPa, x2 = 0.3818	1027.86 ± 0.42
313.15 K, 101 kPa, x2 = 0	1039.32 ± 0.44
322.95 K, 5076 kPa, x2 = 0.199	1016.5 ± 0.43
322.95 K, 6015 kPa, x2 = 0.199	1017.63 ± 0.43
322.95 K, 7042 kPa, x2 = 0.199	1018.88 ± 0.43
322.95 K, 8054 kPa, x2 = 0.199	1020.1 ± 0.43
322.95 K, 9012 kPa, x2 = 0.199	1021.25 ± 0.43
322.95 K, 9975 kPa, x2 = 0.199	1022.38 ± 0.43
322.95 K, 11019 kPa, x2 = 0.199	1023.61 ± 0.43
322.95 K, 12001 kPa, x2 = 0.199	1024.72 ± 0.43
322.95 K, 12978 kPa, x2 = 0.199	1025.86 ± 0.43
322.95 K, 14026 kPa, x2 = 0.199	1027.05 ± 0.43
322.95 K, 15010 kPa, x2 = 0.199	1028.15 ± 0.43
322.95 K, 16019 kPa, x2 = 0.199	1029.28 ± 0.43
322.95 K, 17005 kPa, x2 = 0.199	1030.36 ± 0.43
322.95 K, 18005 kPa, x2 = 0.199	1031.46 ± 0.43

From the NIST ThermoML archive (doi:10.1016/j.fluid.2005.07.017)
